Earlier results on 1 substance are cited in patent US9302241B2, “Method of preparing lipid nanoparticles” (UNIVERSITE D'ANGERS, priority 2008, dated 2016).

For this data set the following is noted: concentration of Fondaparinux in its brand form Arixtra.

With Fondaparinux, the solubility in water result is reported as “greater than 12.5 mg/ml”.
